The cell lines below were run with N[C@@H]1CCCN(c2c(/C=C3\SC(=O)NC3=O)cccc2-c2ccccc2)C1 [AZD1208] + COc1cccc2cc(-c3nc([C@H]4CC[C@H](C(=O)O)CC4)n4ncnc(N)c34)[nH]c12 [OSI-027] (partner 0.5 µM) (assay: relative viability (nuclei count vs DMSO), 5 days (fraction); higher = more cells survive). Settings: first compound 0.08 µM.
Outline: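 Nuclei were stained with Hoechst during a one-step fixation (final 0.05% Triton X-100, 1% formaldehyde, 1 ug/ml Hoechst) carried out 5 days after dosing, then counted on 4× images. The cells, lung cancer lines in 1536-well plates, had been dosed by pin tool the day after seeding with one drug alone or a fixed anchor-drug dose plus five library-drug doses (not always all listed) in √10 steps. Relative viability is the nuclei count in treated wells divided by that in vehicle wells, and each value is the median of duplicate plates.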

Q: For NCI-H1648, which relative viability is on record?
A: 0.246

Q: For NCI-H441, which relative viability is on record?
A: 0.518

Q: How did the relative viability turn out when NCI-H1395 was run?
A: 0.624

Q: With NCI-H1793 as the cell line, how does the relative viability read?
A: 0.244

Same assay, conditions: first compound 0.253 µM

Q: With NCI-H522 as the cell line, how does the relative viability read?
A: 0.575

Q: NCI-H1623 was tested. Which relative viability did it give?
A: 0.38

Q: NCI-H838 was tested. Which relative viability did it give?
A: 0.453

Q: Which relative viability does the source give for NCI-H1650 here?
A: 0.516

Q: How did the relative viability turn out when NCI-H2009 was run?
A: 0.645

Q: Which relative viability does the source give for NCI-H1993 here?
A: 0.447

Q: How did the relative viability turn out when PC-14 was run?
A: 0.881

Q: With LCLC-103H as the cell line, how does the relative viability read?
A: 0.371

Q: How did the relative viability turn out when NCI-H596 was run?
A: 0.817

Q: Which relative viability does the source give for NCI-H2228 here?
A: 0.586

Q: Which relative viability does the source give for EMC-BAC-2 here?
A: 0.37

Q: Which relative viability does the source give for NCI-H2087 here?
A: 0.508

Q: For HCC-366, which relative viability is on record?
A: 0.96

Q: With NCI-H1666 as the cell line, how does the relative viability read?
A: 0.829

Q: With NCI-H647 as the cell line, how does the relative viability read?
A: 0.885

Q: For LK-2, which relative viability is on record?
A: 0.155

Q: With NCI-H2126 as the cell line, how does the relative viability read?
A: 0.704

Q: Which relative viability does the source give for NCI-H2342 here?
A: 0.664

Q: Which relative viability does the source give for SK-MES-1 here?
A: 0.509

Q: How did the relative viability turn out when H3255 was run?
A: 0.54

Q: For COR-L23, which relative viability is on record?
A: 0.779

Q: How did the relative viability turn out when COR-L 105 was run?
A: 0.745

Q: For LOU-NH91, which relative viability is on record?
A: 0.577

Q: Which relative viability does the source give for ChaGo-K-1 here?
A: 0.546

Q: With NCI-H2170 as the cell line, how does the relative viability read?
A: 0.653

Q: NCI-H3122 was tested. Which relative viability did it give?
A: 0.856

Q: HOP-62 was tested. Which relative viability did it give?
A: 0.965

Q: How did the relative viability turn out when SW 900 was run?
A: 0.578

Q: Which relative viability does the source give for NCI-H1648 here?
A: 0.244

Q: NCI-H441 was tested. Which relative viability did it give?
A: 0.535

Q: With NCI-H1395 as the cell line, how does the relative viability read?
A: 0.569

Q: How did the relative viability turn out when NCI-H1793 was run?
A: 0.254

Same assay, conditions: first compound 0.8 µM

Q: Which relative viability does the source give for NCI-H522 here?
A: 0.618

Q: How did the relative viability turn out when NCI-H1623 was run?
A: 0.406

Q: With NCI-H838 as the cell line, how does the relative viability read?
A: 0.38

Q: For NCI-H1650, which relative viability is on record?
A: 0.568

Q: NCI-H2009 was tested. Which relative viability did it give?
A: 0.537

Q: For NCI-H1993, which relative viability is on record?
A: 0.616

Q: Which relative viability does the source give for PC-14 here?
A: 0.722

Q: Which relative viability does the source give for LCLC-103H here?
A: 0.378

Q: How did the relative viability turn out when NCI-H596 was run?
A: 0.62

Q: Which relative viability does the source give for NCI-H2228 here?
A: 0.406

Q: How did the relative viability turn out when EMC-BAC-2 was run?
A: 0.346

Q: Which relative viability does the source give for NCI-H2087 here?
A: 0.427

Q: Which relative viability does the source give for HCC-366 here?
A: 0.837

Q: How did the relative viability turn out when NCI-H1666 was run?
A: 0.682

Q: NCI-H647 was tested. Which relative viability did it give?
A: 0.508

Q: How did the relative viability turn out when LK-2 was run?
A: 0.157

Q: For NCI-H2126, which relative viability is on record?
A: 0.68

Q: Which relative viability does the source give for NCI-H2342 here?
A: 0.488

Q: With SK-MES-1 as the cell line, how does the relative viability read?
A: 0.492

Q: How did the relative viability turn out when H3255 was run?
A: 0.429

Q: With COR-L23 as the cell line, how does the relative viability read?
A: 0.642

Q: How did the relative viability turn out when COR-L 105 was run?
A: 0.542

Q: How did the relative viability turn out when LOU-NH91 was run?
A: 0.631

Q: With ChaGo-K-1 as the cell line, how does the relative viability read?
A: 0.49

Q: How did the relative viability turn out when NCI-H2170 was run?
A: 0.636

Q: How did the relative viability turn out when NCI-H3122 was run?
A: 0.768

Q: With HOP-62 as the cell line, how does the relative viability read?
A: 0.726

Q: How did the relative viability turn out when SW 900 was run?
A: 0.398

Q: How did the relative viability turn out when NCI-H1648 was run?
A: 0.268

Q: For NCI-H441, which relative viability is on record?
A: 0.396

Q: With NCI-H1395 as the cell line, how does the relative viability read?
A: 0.578

Q: NCI-H1793 was tested. Which relative viability did it give?
A: 0.268

Same assay, conditions: first compound 2.53 µM

Q: For NCI-H522, which relative viability is on record?
A: 0.691

Q: Which relative viability does the source give for NCI-H1623 here?
A: 0.366

Q: How did the relative viability turn out when NCI-H838 was run?
A: 0.326

Q: NCI-H1650 was tested. Which relative viability did it give?
A: 0.434

Q: How did the relative viability turn out when NCI-H2009 was run?
A: 0.569

Q: For NCI-H1993, which relative viability is on record?
A: 0.491

Q: With PC-14 as the cell line, how does the relative viability read?
A: 0.586

Q: LCLC-103H was tested. Which relative viability did it give?
A: 0.382

Q: NCI-H596 was tested. Which relative viability did it give?
A: 0.56

Q: Which relative viability does the source give for NCI-H2228 here?
A: 0.308

Q: EMC-BAC-2 was tested. Which relative viability did it give?
A: 0.296

Q: With NCI-H2087 as the cell line, how does the relative viability read?
A: 0.513

Q: With HCC-366 as the cell line, how does the relative viability read?
A: 0.819

Q: Which relative viability does the source give for NCI-H1666 here?
A: 0.826

Q: NCI-H647 was tested. Which relative viability did it give?
A: 0.515

Q: For LK-2, which relative viability is on record?
A: 0.123

Q: With NCI-H2126 as the cell line, how does the relative viability read?
A: 0.613

Q: How did the relative viability turn out when NCI-H2342 was run?
A: 0.627

Q: With SK-MES-1 as the cell line, how does the relative viability read?
A: 0.541

Q: H3255 was tested. Which relative viability did it give?
A: 0.491

Q: With COR-L23 as the cell line, how does the relative viability read?
A: 0.728

Q: With LOU-NH91 as the cell line, how does the relative viability read?
A: 0.694

Q: ChaGo-K-1 was tested. Which relative viability did it give?
A: 0.421

Q: Which relative viability does the source give for NCI-H2170 here?
A: 0.625

Q: NCI-H3122 was tested. Which relative viability did it give?
A: 0.862

Q: Which relative viability does the source give for HOP-62 here?
A: 0.642

Q: SW 900 was tested. Which relative viability did it give?
A: 0.439

Q: How did the relative viability turn out when NCI-H1648 was run?
A: 0.244

Q: NCI-H441 was tested. Which relative viability did it give?
A: 0.493

Q: With NCI-H1395 as the cell line, how does the relative viability read?
A: 0.624

Q: For NCI-H1793, which relative viability is on record?
A: 0.31

Same assay, conditions: first compound 8 µM

Q: For NCI-H522, which relative viability is on record?
A: 0.701

Q: Which relative viability does the source give for NCI-H1623 here?
A: 0.431

Q: Which relative viability does the source give for NCI-H838 here?
A: 0.301

Q: Which relative viability does the source give for NCI-H1650 here?
A: 0.473

Q: How did the relative viability turn out when NCI-H2009 was run?
A: 0.553

Q: For NCI-H1993, which relative viability is on record?
A: 0.536

Q: With PC-14 as the cell line, how does the relative viability read?
A: 0.621

Q: For LCLC-103H, which relative viability is on record?
A: 0.376

Q: How did the relative viability turn out when NCI-H596 was run?
A: 0.359

Q: Which relative viability does the source give for NCI-H2228 here?
A: 0.304

Q: How did the relative viability turn out when EMC-BAC-2 was run?
A: 0.315

Q: Which relative viability does the source give for NCI-H2087 here?
A: 0.445

Q: How did the relative viability turn out when HCC-366 was run?
A: 0.672

Q: How did the relative viability turn out when NCI-H1666 was run?
A: 0.775

Q: Which relative viability does the source give for NCI-H647 here?
A: 0.47

Q: For LK-2, which relative viability is on record?
A: 0.144

Q: How did the relative viability turn out when NCI-H2126 was run?
A: 0.674

Q: How did the relative viability turn out when NCI-H2342 was run?
A: 0.574

Q: With SK-MES-1 as the cell line, how does the relative viability read?
A: 0.461

Q: With H3255 as the cell line, how does the relative viability read?
A: 0.543

Q: COR-L23 was tested. Which relative viability did it give?
A: 0.452

Q: COR-L 105 was tested. Which relative viability did it give?
A: 0.736

Q: LOU-NH91 was tested. Which relative viability did it give?
A: 0.619

Q: For ChaGo-K-1, which relative viability is on record?
A: 0.402

Q: With NCI-H2170 as the cell line, how does the relative viability read?
A: 0.535

Q: Which relative viability does the source give for NCI-H3122 here?
A: 0.606

Q: With HOP-62 as the cell line, how does the relative viability read?
A: 0.632

Q: For SW 900, which relative viability is on record?
A: 0.438

Q: How did the relative viability turn out when NCI-H1648 was run?
A: 0.274

Q: How did the relative viability turn out when NCI-H441 was run?
A: 0.352

Q: How did the relative viability turn out when NCI-H1395 was run?
A: 0.491

Q: NCI-H1793 was tested. Which relative viability did it give?
A: 0.25

— the supplement of paper PMC10307832
